Measured values taken from patent US8378104B2 (OSI Pharmaceuticals, LLC, priority 2010, dated 2013).
Structures can show the parent of a compound that is named as a salt.

Molecular target: T1, TAK1-TAB1 fusion protein (Homo sapiens, UniProt O43318)
T1 construct: purchased Carna
T1 sequence (O43318 with tags, fused parts or gaps limits assumed): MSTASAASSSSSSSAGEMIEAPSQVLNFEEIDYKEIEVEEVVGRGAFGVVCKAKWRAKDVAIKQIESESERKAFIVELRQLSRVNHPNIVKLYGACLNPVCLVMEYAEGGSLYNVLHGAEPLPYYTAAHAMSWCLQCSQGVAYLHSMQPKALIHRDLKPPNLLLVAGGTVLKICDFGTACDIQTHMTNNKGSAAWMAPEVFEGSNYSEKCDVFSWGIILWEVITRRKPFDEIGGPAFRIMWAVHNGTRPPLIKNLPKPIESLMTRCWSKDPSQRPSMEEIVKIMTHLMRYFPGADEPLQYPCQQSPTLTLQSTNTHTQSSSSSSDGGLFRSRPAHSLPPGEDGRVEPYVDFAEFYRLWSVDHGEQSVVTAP
Experiment: TAK1 biochemical assay (AlphaScreen, GST-MAP2K7 substrate)
Settings: not given

Structure (SMILES)	IC50 [nM]
CC(=O)N1CCC(n2cc(-c3cnc(N)c4oc(C5=CCNCC5)cc34)cn2)CC1 [Example 95, 1-(4-{4-[7-amino-2-(1,2,3,6-tetrahydropyridin-4-yl)furo[2,3-c]pyridin-4-yl]-1H-pyrazol-1-yl}piperidin-1-yl)ethanone hydrochloride]	100 to 1000

Same assay, conditions: TAK1-TAB1 fusion protein, GST-MAP2K7 substrate; read-out: mean TAK1 IC50 (Col. A)

Structure (SMILES)	IC50 [nM]
Nc1ncc(-c2cnn(C3CCNCC3)c2)c2cc(-c3ccc4[nH]c(=O)[nH]c4c3)oc12 [Example 25, 5-{7-amino-4-[1-(piperidin-4-yl)-1H-pyrazol-4-yl]furo[2,3-c]pyridine-2-yl}-1,3-dihydro-2H-benzimidazol-2-one]	1000 to 10000
Nc1ncc(-c2cnn(C3CCCCC3)c2)c2cc(-c3cccc4cnccc34)oc12 [Example 73, 4-(1-cyclohexyl-1H-pyrazol-4-yl)-2-(isoquinolin-5-yl)furo[2,3-c]pyridin-7-amine]	1000 to 10000
CC(=O)N1CCC(n2cc(-c3cnc(N)c4oc(-c5cccc(Oc6ccccc6)c5)cc34)cn2)CC1 [Example 186, 1-(4-{4-[7-amino-2-(3-phenoxyphenyl)furo[2,3-c]pyridin-4-yl]-1H-pyrazol-1-yl}piperidin-1-yl)ethanone]	> 10000
CC(=O)N1CCC(n2cc(-c3cnc(N)c4oc(C5CCCCC5)cc34)cn2)CC1 [Example 152, 1-{4-[4-(7-amino-2-cyclohexylfuro[2,3-c]pyridin-4-yl)-1H-pyrazol-1-yl]piperidin-1-yl}ethanone]	100 to 1000
Nc1ncc(-c2cnn(C3CCNCC3)c2)c2cc(-c3cccc4cccnc34)oc12 [Example 32, 4-[1-(piperidin-4-yl)-1H-pyrazol-4-yl]-2-(quinolin-8-yl)furo[2,3-c]pyridine-7-amine]	1000 to 10000
Nc1ncc(-c2cnn(C3CCNCC3)c2)c2cc(-c3cc(C(F)(F)F)cc(C(F)(F)F)c3)oc12 [Example 1, 2-{(3,5-Bis-trifluoromethyl)phenyl}-4-(1-piperidin-4-yl-1H-pyrazol-4-yl)-furo[2,3-c]pyridin-7-ylamine]	1000 to 10000
Nc1ncc(-c2cnn(C3CCNCC3)c2)c2cc(-c3ccn[nH]3)oc12 [Example 27, 4-[1-(piperidin-4-yl)-1H-pyrazol-4-yl]-2-(1H-pyrazol-5-yl)furo[2,3-c]pyridine-7-amine]	1000 to 10000
CC(=O)N1CCC(n2cc(-c3cnc(N)c4oc(-c5ccc(N)c(C#N)c5)cc34)cn2)CC1 [Example 104, 5-{4-[1-(1-acetylpiperidin-4-yl) 1H-pyrazol-4-yl]-7-aminofuro[2,3-c]pyridin-2-yl}-2-aminobenzonitrile]	1000 to 10000
Nc1ncc(-c2cnn(CCO)c2)c2cc(-c3cccc4cnccc34)oc12 [Example 67, 2-{4-[7-amino-2-(isoquinolin-5-yl)furo[2,3-c]pyridin-4-yl]-1H-pyrazol-1-yl}ethanol]	1000 to 10000
Nc1ncc(-c2cnn(C3CCNCC3)c2)c2cc(-c3ccc4cc[nH]c4c3)oc12 [Example 29, 2-(1H-indol-6-yl)-4-[1-(piperidin-4-yl)-1H-pyrazol-4-yl]furo[2,3-c]pyridin-7-amine]	1000 to 10000
CC(=O)N1CCC(n2cc(-c3cnc(N)c4oc(-c5ccc6c(c5)OCCO6)cc34)cn2)CC1 [Example 157, 1-(4-{4-[7-amino-2-(2,3-dihydro-1,4-benzodioxin-6-yl)furo[2,3-c]pyridin-4-yl]-1H-pyrazol-1-yl}piperidin-1-yl)ethanone]	100 to 1000
CC(=O)N1CCC(n2cc(-c3cnc(N)c4oc(-c5ccc(OC(F)(F)F)cc5)cc34)cn2)CC1 [Example 173, 1-[4-(4-{7-amino-2-[4-(trifluoromethoxy)phenyl]furo[2,3-c]pyridin-4-yl}-1H-pyrazol-1-yl)piperidin-1-yl]ethanone]	> 10000
CC(=O)N1CCC(n2cc(-c3cnc(N)c4oc(-c5ccc(NS(C)(=O)=O)cc5)cc34)cn2)CC1 [Example 121, N-(4-{4-[1-(1-acetylpiperidin-4-yl)-1H-pyrazol-4-yl]-7-aminofuro[2,3-c]pyridin-2-yl}phenyl)methanesulfonamide]	1000 to 10000
CC(=O)N1CCC(n2cc(-c3cnc(N)c4oc(-c5ccc6c(c5)C(=O)NC6=O)cc34)cn2)CC1 [Example 100, 5-{4-[1-(1-acetylpiperidin-4-yl)-1H-pyrazol-4-yl]-7-aminofuro[2,3-c]pyridin-2-yl}-1H-isoindole-1,3(2H)-dione]	1000 to 10000
CC(=O)N1CCC(n2cc(-c3cnc(N)c4oc(-c5ccc(-c6ccn[nH]6)cc5)cc34)cn2)CC1 [Example 128, 1-[4-(4-{7-amino-2-[4-(1H-pyrazol-5-yl)phenyl]furo[2,3-c]pyridin-4-yl}-1H-pyrazol-1-yl)piperidin-1-yl]ethanone]	1000 to 10000
CCOc1cccc(-c2cc3c(-c4cnn(C5CCN(C(C)=O)CC5)c4)cnc(N)c3o2)c1 [Example 162, 1-(4-{4-[7-amino-2-(3-ethoxyphenyl)furo[2,3-c]pyridin-4-yl]-1H-pyrazol-1-yl}piperidin-1-yl)ethanone]	1000 to 10000
CC(=O)N1CCC(n2cc(-c3cnc(N)c4oc(-c5ccc(C(=O)N(C)C)cc5)cc34)cn2)CC1 [Example 125, 4-{4-[1-(1-acetylpiperidin-4-yl)-1H-pyrazol-4-yl]-7-aminofuro[2,3-c]pyridin-2-yl}-N,N-dimethylbenzamide]	> 10000
COC(=O)c1cc2cccc(-c3cc4c(-c5cnn(C6CCNCC6)c5)cnc(N)c4o3)c2s1 [Example 48, methyl 7-{7-amino-4-[1-(piperidin-4-yl)-1H-pyrazol-4-yl]furo[2,3-c]pyridine-2-yl}-1-benzothiophene-2-carboxylate]	100 to 1000

Continued, values first:

IC50 [nM]	Structure (SMILES)
100 to 1000	CC(=O)N1CCC(n2cc(-c3cnc(N)c4oc(-c5ccccc5CO)cc34)cn2)CC1 [Example 194, 1-[4-(4-{7-amino-2-[2-(hydroxymethyl)phenyl]furo[2,3-c]pyridin-4-yl}-1H-pyrazol-1-yl)piperidin-1-yl]ethanone]
1000 to 10000	CN(C)c1nc2cccc(-c3cc4c(-c5cnn([C@H]6CC[C@H](O)CC6)c5)cnc(N)c4o3)c2s1 [Example 371, trans-4-(4-{7-amino-2-[2-(dimethylamino)-1,3-benzothiazol-7-yl]furo[2,3-c]pyridin-4-yl}-1H-pyrazol-1-yl)cyclohexanol Trifluoroacetate (Salt)]
1000 to 10000	Nc1ncc(-c2ccsc2)c2cc(-c3csc4cnccc34)oc12 [Example 391, 2-(thieno[2,3-c]pyridin-3-yl)-4-(thiophen-3-yl)furo[2,3-c]pyridin-7-amine trifluoroacetate]
100 to 1000	Nc1ncc(-c2cnn([C@H]3CC[C@H](O)CC3)c2)c2cc(-c3cccc4ccsc34)oc12 [Example 232, trans-4-{4-[7-amino-2-(1-benzothiophen-7-yl)furo[2,3-c]pyridin-4-yl]-1H-pyrazol-1-yl}cyclohexanol diformate salt]
1000 to 10000	Cn1ccc(-c2cnc(N)c3oc(-c4csc5cnccc45)cc23)c1 [Example 389, 4-(1-methyl-1H-pyrrol-3-yl)-2-(thieno[2,3-c]pyridin-3-yl)furo[2,3-c]pyridin-7-amine trifluoroacetate]
1000 to 10000	Nc1ncc(-c2cnn([C@H]3CC[C@H](O)CC3)c2)c2cc(-c3c(F)ccc4ncsc34)oc12 [Example 359, trans-4-{4-[7-amino-2-(6-fluoro-1,3-benzothiazol-7-yl)furo[2,3-c]pyridin-4-yl]-1H-pyrazol-1-yl}cyclohexanol]
1000 to 10000	CSc1nc2cccc(-c3cc4c(-c5cnn([C@H]6CC[C@H](O)CC6)c5)cnc(N)c4o3)c2s1 [Example 353, trans-4-(4-{7-amino-2-[2-(methylsulfanyl)-1,3-benzothiazol-7-yl]furo[2,3-c]pyridin-4-yl}-1H-pyrazol-1-yl)cyclohexanol Trifluoroacetate (Salt)]
100 to 1000	CNc1ncc(-c2cnn(C3CCN(C(C)=O)CC3)c2)c2cc(-c3cccc4cnsc34)oc12 [Example 279, 1-(4-{4-[2-(1,2-benzothiazol-7-yl)-7-(methylamino)furo[2,3-c]pyridin-4-yl]-1H-pyrazol-1-yl}piperidin-1-yl)ethanone trifluoroacetate]
> 10000	Nc1ncc(-c2ccc(-c3ccccc3)s2)c2cc(-c3csc4cnccc34)oc12 [Example 385, 4-(5-phenyl-thiophen-2-yl)-2-thieno[2,3-c]pyridin-3-yl-furo[2,3-c]pyridin-7-ylamine]
1000 to 10000	Cc1ccc(-c2cnc(N)c3oc(-c4csc5cnccc45)cc23)o1 [Example 387, 4-(5-methylfuran-2-yl)-2-(thieno[2,3-c]pyridin-3-yl)furo[2,3-c[pyridin-7-amine trifluoroacetate]
1000 to 10000	Cc1c(-c2cnc(N)c3oc(-c4csc5cnccc45)cc23)cnn1[C@H]1CC[C@H](O)CC1 [Example 305, 4-[4-(7-amino-2-thieno[2,3-c]pyridin-3-yl-furo[2,3-c]pyridin-4-yl)-5-methyl-pyrazol-1-yl]-cyclohexanol]
1000 to 10000	Cc1ccc(-c2cnc(N)c3oc(-c4csc5cnccc45)cc23)s1 [Example 386, 4-(5-methyl-thiophen-2-yl)-2-thieno[2,3-c]pyridin-3-yl-furo[2,3-c]pyridin-7-ylamine]
> 10000	Cn1cnc(-c2cnc(N)c3oc(-c4csc5cnccc45)cc23)c1 [Example 395, 4-(1-methyl-1H-imidazol-4-yl)-2-thieno[2,3-c]pyridin-3-yl-furo[2,3-c]pyridin-7-ylamine]
1000 to 10000	Cc1nn([C@H]2CC[C@H](O)CC2)cc1-c1cnc(N)c2oc(-c3csc4cnccc34)cc12 [Example 304, 4-[4-(7-amino-2-thieno[2,3-c]pyridin-3-yl-furo[2,3-c]pyridin-4-yl)-3-methyl-pyrazol-1-yl]-cyclohexanol]
